# Results from patent publication EP0565593B1, “REDUCING PESTICIDAL INTERACTIONS IN CROPS” (priority 1990, dated 1992).
# Read-outs that look alike come from different tables or passages of the source.
# Tests used:
# Format in all cases: in vivo
# Shattercane (SHCA) = tested on: Shattercane (SHCA)
# cotton (COTT) = assay: Multi-crop greenhouse test, biocide, herbicide and safener applied to soil covers (Examples 65, 66; Tables 64, 65); set-up: inhibition: dose or concentration left out as unconfirmed; conditions: for inhibition / inhibition at 18 g/ha / inhibition at 70 g/ha / inhibition at 280 g/ha: Gossypium hirsutum, soil; for inhibition at 18 g/ha: Herb. No. 1 0.018 Kg/Ha alone; for inhibition at 70 g/ha: Herb. No. 1 0.07 Kg/Ha alone; for inhibition at 280 g/ha: Herb. No. 1 0.28 Kg/Ha alone
# Method: Tests according to this invention in various crops indicate widespread application of the invention. In Examples 62-66 below are described tests with a variety of herbicides contacted with COUNTER® 15G in the presence and absence of MON-7400 (Antidote No. 12); MON-13900 (No. 1); MON-4660 (No. 16) and flurazole (No. 16). Those tests were conducted according to Procedures IV or V described above and illustrated further in other foregoing examples. Plants used in all tests were, for crops (as abbreviated in parentheses); cotton (COTT); soybean (SOBE); CORN, grain sorghum (GRSO); wheat (WHEA) and RICE, and the weeds giant foxtail (GIFT) and velvetleaf (VELE). The data in the tables below represent averages of two replications.
# In this test the crops and weeds were planted 1.3 cm deep in 13.7 cm X 27.7 cm pans containing Dupo silt loam soil. The test safeners were applied in acetone solution and COUNTER 15G as dry granules to soil cover layers and incorporated by shaking in a bag. Treated cover layers were placed on seeded pans which were transferred to greenhouse benches and subirrigated. Herbicide was applied POE six (6) days after PPI initiation and observations of plant injury made ten (10) days later; results are shown in Table 61. The herbicide used in this example was BEACON (No. 8).
# In another test in the several crops and weeds used in this test series, the herbicidal component was MON-12000 (No. 1); the other components were the same. the procedure used in this test was the same as that described in Example 62, modified to use a light overhead irrigation (about 0.32 cm/day) during days 4-7 of the test.
# In yet another test in this series, XRD-498 (Herbicide No. 21) was used as the herbicidal component in contact with COUNTER 15G in the presence of the above safeners. The various components of the system (biocide, herbicide and safener) were applied concurrently to soil covers of the seeded plants.
# Giant foxtail (GIFT) = assay: Greenhouse test Procedure VI (Examples 59-61; Tables 58-60); conditions: Antidote + Biocide No. 1 in furrow
# Source text: This procedure describes interaction among herbicide, biocide and antidote when the herbicide is incorporated in a soil cover layer and the biocide and the antidote are applied in a soil furrow containing crop seed before emergence of the crop. The soil and seeding depth were described in Procedure IV. A first container was designated as an untreated control, a second container was designated as a herbicide control, a third container was designated as a herbicide + biocide control and a fourth container as a herbicide + biocide + antidote test container. The biocide and antidote were formulated as granules. The biocide was applied to the soil furrows of the third and fourth containers at an application rate of 1.1 mg of active compound per cm of row. The antidote was applied to the soil furrow of the fourth container at an application rate of 0.37 mg of active compound per cm of row. A measured amount of the herbicide dispersed or dissolved in acetone was applied to a measured quantity of soil. The quantity of soil treated with the herbicide was thoroughly mixed to incorporate the herbicide. Samples of this soil were used to cover the seed beds of the second, third and fourth containers. For each test series, the seed bed of the first container was likewise covered by a soil layer not treated with herbicide and without biocide or antidote in the soil furrow.
# The containers were then placed on a bench in a greenhouse. Watering was by subirrigation plus overhead irrigation after the plants emerged. All treatments were run in duplicate. Plant response was observed according to Procedure IV. Variations in this procedure will be noted in the examples.
# The procedure used in this example involved the PPI application of biocide and safener as described in general Procedure VI above. The "primary" herbicide in this test was MON-12000 (Herbi-cide No. 1) in admixture with other herbicides designated as "co-herbicides", which included LASSO® (co-herbicide B); DUAL® (C); acetochlor (A); EPTAM® (D); butylate (E) and PURSUIT® (K).
# The in-furrow treatments with blended COUNTER 15G and antidote mixtures was as described in above examples. MON-12000 and the co-herbicides were formulated in acetone and applied as tank mixtures, incorporated into Dupo silt loam soil with a rotary drum mixer. Subsamples were used to cover seeded and in-furrow treated 10.2 cm pots. Pots were placed on greenhouse benches and subirrigated. Plant responses were observed thirteen days after PPI initiation. Test results (average of two replications) are shown in Table 58, wherein giant foxtail (GIFT) was used in place of shattercane.
# This test was conducted in the same manner used in Example 59. All biocide and antidote components were the same and in these tests XRD-498 (Herbicide No. 21) was the prime herbicide. Co-herbicides are shown in Table 59 together with test data.
# In one other test conducted as described in the preceding examples in this series of tests, the herbicide PURSUIT® was used as the primary herbicide (in the context of this invention) together with the same insecticide and safeners as above and the co-herbicides shown in Table 60, together with test results.
# [1] = Antidote 4.48 + Biocide No. 1 8.96 Kg/Ha PPI, Herb. No. 8 0.07, 5 DAP, before herbicide application
# [2] = Antidote 4.48 + Biocide No. 1 8.96 Kg/Ha PPI, Herb. No. 8 0.07 POE, 13 DAP
# [3] = Antidote 4.48 + Biocide No. 1 8.96 Kg/Ha PPI, Herbicide No. 7 0.28 POE, 13 days after planting
# [4] = Table 14: Herbicide No. 7 (ACCENT) 0.84 Kg/Ha POE + Biocide No. 2 8.96 Kg/Ha PPI + antidote 4.48 Kg/Ha PPI, 13 days after planting, 8 days after herbicide
# [5] = […], 13 days after planting, 8 days after herbicide
# [6] = […], observed 10 days after herbicide application
# [7] = Herbicide No. 11 0.0044 Kg/Ha PPI
# [8] = Herbicide No. 12 0.0044 Kg/Ha PPI
# [9] = Herbicide No. 13 0.0011 Kg/Ha PPI
# [10] = Herbicide No. 13 0.0022 Kg/Ha PPI
# [11] = Herbicide No. 14 0.07 Kg/Ha PPI
# [12] = Herbicide No. 16 0.07 Kg/Ha PPI, 13 days
# [13] = Herbicide No. 17 0.14 Kg/Ha PPI, 13 days
# [14] = Herbicide No. 18 0.04 Kg/Ha PPI, 13 days
# [15] = Herbicide No. 20 1.12 Kg/Ha PPI, 13 days
# [16] = Herbicide No. 22 0.28 Kg/Ha PPI, 13 days
# [17] = Herbicide No. 24 0.14 Kg/Ha PPI, 13 days
# [18] = Herbicide No. 25 0.14 Kg/Ha PPI, 13 days
# [19] = Herbicide No. 26 2.24 Kg/Ha PPI, 13 days
# [20] = Herbicide No. 28 0.04 Kg/Ha PPI, 13 days
Compound,% Inhibition 5 DAP SHCA (Shattercane (SHCA); [1]) [%],% Inhibition 13 DAP SHCA (Shattercane (SHCA); [2]) [%],% Inhibition SHCA (Shattercane (SHCA); [3]) [%],% Inhibition SHCA (Shattercane (SHCA); [4]) [%],% Inhibition SHCA (Shattercane (SHCA); [5]) [%],% Inhibition SHCA (Shattercane (SHCA); [6]) [%],% Inhibition 5 DAP SHCA (Shattercane (SHCA); in vivo) [%],% Inhibition 13 DAP SHCA (Shattercane (SHCA); in vivo) [%],% Inhibition GIFT (Giant foxtail (GIFT); Herbicide No. 6 0.14 Kg/Ha PPI) [%],% Inhibition GIFT (Giant foxtail (GIFT); [7]) [%],% Inhibition GIFT (Giant foxtail (GIFT); [8]) [%],% Inhibition GIFT (Giant foxtail (GIFT); [9]) [%],% Inhibition GIFT (Giant foxtail (GIFT); [10]) [%],% Inhibition GIFT (Giant foxtail (GIFT); [11]) [%],% Inhibition GIFT (Giant foxtail (GIFT); [12]) [%],% Inhibition GIFT (Giant foxtail (GIFT); [13]) [%],% Inhibition GIFT (Giant foxtail (GIFT); [14]) [%],% Inhibition GIFT (Giant foxtail (GIFT); [15]) [%],% Inhibition GIFT (Giant foxtail (GIFT); [16]) [%],% Inhibition GIFT (Giant foxtail (GIFT); [17]) [%],other results
CC1(C)OC(c2ccco2)CN1C(=O)C(Cl)Cl (stereo not drawn) [compound 1],0,80,75,70,90,55,20,75,65,0,0,25,35,0,30,75,55,20,25,10,"% Inhibition SHCA (Shattercane (SHCA); […], observed 9 days later (Table 29)): 70%; % Inhibition SHCA (Shattercane (SHCA); […], observed 9 days later (Table 30)): 30%; % Inhibition COTT (cotton (COTT); Table 64, Herb. No. 1 0.018 Kg/Ha + Biocide No. 1 8.96 Kg/Ha + Antidote 4.48 Kg/Ha): 20%; % Inhibition COTT (cotton (COTT); Table 64, Herb. No. 1 0.07 Kg/Ha + Biocide No. 1 8.96 Kg/Ha + Antidote 4.48 Kg/Ha): 35%; % Inhibition COTT (cotton (COTT); Table 64, Herb. No. 1 0.28 Kg/Ha + Biocide No. 1 8.96 Kg/Ha + Antidote 4.48 Kg/Ha): 35%; % Inhibition COTT (cotton (COTT); Table 65, Herb. No. 1 0.018 Kg/Ha + Biocide No. 1 8.96 Kg/Ha + Antidote 4.48 Kg/Ha): 10%; % Inhibition COTT (cotton (COTT); Table 65, Herb. No. 1 0.07 Kg/Ha + Biocide No. 1 8.96 Kg/Ha + Antidote 4.48 Kg/Ha): 20%; % Inhibition COTT (cotton (COTT); Table 65, Herb. No. 1 0.28 Kg/Ha + Biocide No. 1 8.96 Kg/Ha + Antidote 4.48 Kg/Ha): 45%; % Inhibition GIFT (Giant foxtail (GIFT); [18]): 30%; % Inhibition GIFT (Giant foxtail (GIFT); [19]): 0%; % Inhibition GIFT (Giant foxtail (GIFT); [20]): 50%"
N#CCOc1ccc(Cl)c2cccnc12 [compound 33],20,90,70,75,90,55,70,90,70,0,0,10,35,0,45,80,45,30,15,25,% Inhibition GIFT (Giant foxtail (GIFT); [18]): 25%; % Inhibition GIFT (Giant foxtail (GIFT); [19]): 15%; % Inhibition GIFT (Giant foxtail (GIFT); [20]): 40%
"COC(=O)c1c(Cl)nn(C)c1S(=O)(=O)NC(=O)Nc1nc(OC)cc(OC)n1 [Herbicide No. 1, N-[(4,6-dimethoxypyrimidin-2-yl)aminocarbonyl]-3-chloro-4-methoxycarbonyl-5-sulfonamide, reference compound]",–,–,–,–,–,–,–,–,–,–,–,–,–,–,–,–,–,–,–,–,"inhibition (cotton (COTT); Table 64, Herb. No. 1 0.018 Kg/Ha + Biocide No. 1 8.96 Kg/Ha): 15%; inhibition at 18 g/ha (cotton (COTT); Table 64): 10%; inhibition (cotton (COTT); Table 64, Herb. No. 1 0.07 Kg/Ha + Biocide No. 1 8.96 Kg/Ha): 0%; inhibition at 70 g/ha (cotton (COTT); Table 64): 20%; inhibition (cotton (COTT); Table 64, Herb. No. 1 0.28 Kg/Ha + Biocide No. 1 8.96 Kg/Ha): 55%; inhibition at 280 g/ha (cotton (COTT); Table 64): 60%; inhibition (cotton (COTT); Table 65, Herb. No. 1 0.018 Kg/Ha + Biocide No. 1 8.96 Kg/Ha): 0%; inhibition at 18 g/ha (cotton (COTT); Table 65): 0%; inhibition (cotton (COTT); Table 65, Herb. No. 1 0.07 Kg/Ha + Biocide No. 1 8.96 Kg/Ha): 20%; inhibition at 70 g/ha (cotton (COTT); Table 65): 20%; inhibition (cotton (COTT); Table 65, Herb. No. 1 0.28 Kg/Ha + Biocide No. 1 8.96 Kg/Ha): 75%; inhibition at 280 g/ha (cotton (COTT); Table 65): 40%"
